# Biological target: T1, FLK-1 receptor (Mus musculus, UniProt P35918)
# T1 construct: expressed in transfected cells; host or cells: NIH3T3 C7#3
# Assay: FLK-1 ELISA (kinase activity of the FLK-1 receptor in FLK-1/NIH3T3 cells, VEGF stimulated)
# Assay type: cell-based
# Procedure, shortened: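 An ELISA using affinity-purified rabbit anti-FLK-1 antiserum on anti-rabbit IgG-coated plates measured VEGF-stimulated FLK-1 kinase activity. NIH3T3 C7#3 cells carrying FLK-1 were serum-starved (0.1% FBS) overnight, then exposed to compound (final 1:200 dilution, 0.5% DMSO) for two hours at 37 °C.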
# T1 sequence (P35918 20-1345): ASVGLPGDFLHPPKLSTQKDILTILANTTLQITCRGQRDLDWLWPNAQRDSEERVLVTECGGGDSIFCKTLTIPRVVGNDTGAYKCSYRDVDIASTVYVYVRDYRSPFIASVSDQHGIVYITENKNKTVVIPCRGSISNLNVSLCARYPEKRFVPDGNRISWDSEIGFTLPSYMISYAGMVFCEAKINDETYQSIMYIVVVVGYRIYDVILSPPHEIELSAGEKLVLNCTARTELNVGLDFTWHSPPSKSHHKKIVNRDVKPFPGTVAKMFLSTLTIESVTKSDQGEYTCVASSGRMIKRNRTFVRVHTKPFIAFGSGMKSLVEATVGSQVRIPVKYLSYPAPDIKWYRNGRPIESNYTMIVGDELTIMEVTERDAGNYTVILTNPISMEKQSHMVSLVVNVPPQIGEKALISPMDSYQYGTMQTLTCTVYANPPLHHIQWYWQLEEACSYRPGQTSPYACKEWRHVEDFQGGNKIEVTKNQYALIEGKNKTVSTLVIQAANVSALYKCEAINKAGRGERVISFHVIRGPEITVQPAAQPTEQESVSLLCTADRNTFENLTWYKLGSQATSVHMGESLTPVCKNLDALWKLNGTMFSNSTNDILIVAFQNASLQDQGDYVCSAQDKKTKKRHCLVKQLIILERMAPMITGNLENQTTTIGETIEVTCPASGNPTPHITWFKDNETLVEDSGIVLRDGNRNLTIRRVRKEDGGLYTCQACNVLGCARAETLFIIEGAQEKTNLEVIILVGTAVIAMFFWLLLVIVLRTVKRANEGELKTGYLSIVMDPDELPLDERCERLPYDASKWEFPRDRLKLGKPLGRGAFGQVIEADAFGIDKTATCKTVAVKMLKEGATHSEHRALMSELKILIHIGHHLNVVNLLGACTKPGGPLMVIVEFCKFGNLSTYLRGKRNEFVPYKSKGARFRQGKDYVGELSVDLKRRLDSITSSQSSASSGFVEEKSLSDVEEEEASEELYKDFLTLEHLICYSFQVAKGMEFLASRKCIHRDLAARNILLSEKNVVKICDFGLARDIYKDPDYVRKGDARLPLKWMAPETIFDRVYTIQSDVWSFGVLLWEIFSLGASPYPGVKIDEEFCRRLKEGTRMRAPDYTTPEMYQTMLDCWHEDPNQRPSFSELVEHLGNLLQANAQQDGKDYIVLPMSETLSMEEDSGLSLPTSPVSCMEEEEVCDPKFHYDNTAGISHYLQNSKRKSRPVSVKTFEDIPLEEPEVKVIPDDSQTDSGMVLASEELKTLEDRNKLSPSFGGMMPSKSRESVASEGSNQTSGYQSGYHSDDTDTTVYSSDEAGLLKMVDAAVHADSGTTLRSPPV
row,Structure (SMILES),Fik Kinase %Inhibition [%]
1,CC(C)(C)c1cc(C=C2C(=O)Nc3ccc(S(=O)(=O)N4CCOCC4)cc32)cc(Br)c1OCc1ccccc1 [10732/F08],12.6
2,Cc1c(Br)ccc2c1C(=Cc1cc(I)c(OCc3ccccc3)c(C(C)(C)C)c1)C(=O)N2 [10733/C02],5.8
3,CNS(=O)(=O)c1ccc2c(c1)C(=Cc1cc(C(C)(C)C)c(OC)c(C(C)(C)C)c1)C(=O)N2 [10733/D04],15.5
4,CC(C)(C)c1cc(C=C2C(=O)Nc3ccc(S(=O)(=O)Nc4ccc(C(F)(F)F)cc4)cc32)cc(I)c1OCc1ccccc1 [10733/E02],0.8
5,Cc1c(Br)ccc2c1C(=Cc1cc([N+](=O)[O-])ccc1O)C(=O)N2 [10733/C10],-7.6
6,COc1c(C)cc(C=C2C(=O)Nc3c(Br)cc(Br)cc32)cc1C [10733/A06],-16.6
7,Cc1cc(C=C2C(=O)Nc3c(Br)cc(Br)cc32)cc(C)c1OCc1ccccc1 [10733/A07],-27.4
8,CNS(=O)(=O)c1ccc2c(c1)C(=Cc1cc(C)c(OCc3ccccc3)c(C)c1)C(=O)N2 [10733/D07],-1.4
9,COc1c([N+](=O)[O-])cc(C=C2C(=O)Nc3ccc(I)cc32)cc1C(C)(C)C [10733/B03],3.1
